In patent US6667414B2, “Use of propargyl glycine amino propargyl diol compounds for treatment of congestive heart failure” (Pharmacia Corporation, priority 1991, dated 2003):
Where a SMILES comes first, the peptide text is derived from it. [ ]: non-standard residue; d: D form. The star is where a group is joined. Sta = CC(C)C[C@H](N)[C@@H](O)CC(=O)O; Isovaleryl = CC(C)CC(=O)*

Tests used:
hog renin = settings: after the injection of hog renin into nephrectomized rats; cited from earlier work
human renin = biological target: T1, human renin (Homo sapiens, UniProt P00797); test: Human renin inhibition in vitro; type: biochemical; settings: conversion of angiotensinogen to angiotensin I, 2 h at 37° C., pH 7.4
T1 construct: purchased National Institute for Biological Standards, London
T1 sequence (P00797 67-406): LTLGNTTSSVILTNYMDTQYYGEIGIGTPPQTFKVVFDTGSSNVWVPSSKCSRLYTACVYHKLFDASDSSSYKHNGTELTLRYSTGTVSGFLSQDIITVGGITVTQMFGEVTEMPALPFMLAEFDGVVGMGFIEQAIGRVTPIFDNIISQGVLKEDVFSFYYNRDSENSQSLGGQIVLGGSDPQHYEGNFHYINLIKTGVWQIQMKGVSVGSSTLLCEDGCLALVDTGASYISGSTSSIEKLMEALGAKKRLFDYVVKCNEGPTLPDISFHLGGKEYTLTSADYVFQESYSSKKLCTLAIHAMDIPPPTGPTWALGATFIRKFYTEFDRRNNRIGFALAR
Experimental: Compounds of Formula I were evaluated as inhibitors of human renin in an in vitro assay, as follows: This human renin inhibition test has been previously described in detail [Papaioannou et al., Clinical and Experimental Hypertension, A7(9), 1243-1257 (1985)-]. Human renin was obtained from the National Institute for Biological Standards, London. An incubation mixture was prepared containing the following components: in a total volume of 0.25 mL: 100 mM Tris-acetate buffer at pH 7.4, 25×10^−6 Goldblatt units of renin, 0.05 mL of plasma from human volunteers taking oral contraceptives, 6.0 mM Na-EDTA, 2.4 mM phenylmethyl sulfonyl fluoride, 1.5 mM 8-hydroxyquinoline, 0.4 mg/mL bovine serum albumin (BSA), and 0.024 mg/mL neomycin sulfate. This mixture was incubated for two hours at 37° C. in the presence or absence of renin inhibitors. The produced angiotensin I was determined by radioimmunoassay (New England Nuclear kit). Test compounds to be assayed were dissolved in DMSO and diluted with 100 mM Tris-acetate buffer at pH 7.4 containing 0.5% BSA to the appropriate concentration. The final concentration of organic solvent in the reaction mixture was less than 1%. Control incubations at 37° C. were used to correct for effects of organic solvent on renin activity.

Compound | blood pressure in vivo (hog renin) | IC50 (human renin)
CC(C)CC(=O)N[C@H](C(=O)N[C@H](C(=O)N[C@@H](CC(C)C)[C@@H](O)CC(=O)N[C@@H](C)C(=O)N[C@@H](CC(C)C)[C@@H](O)CC(=O)O)C(C)C)C(C)C [pepstatin] (Isovaleryl-VV[Sta]A[Sta]-OH) | reduce blood pressure | –
C#CC[C@H](NC(=O)[C@@H](CC(=O)N(C)CCN(C)C)Cc1ccccc1)C(=O)N[C@@H](CC1CCCCC1)[C@@H](O)[C@@H](O)CC#C (relative stereo) [Example 1, N1-[1R*-[[[1S,1R*-(cyclohexylmethyl)-2S*,3R*-dihydroxyhexynyl]amino]carbonyl]-3-butynyl]-N-4-[2-(dimethylamino)ethyl]-N-4-methyl-2S*-(phenylmethyl)Butanediamide] | – | 0.034 µM
